Source: patent US10870647B2, “Imidazopyridine derivative, method for preparing same, and pharmaceutical composition containing same as active ingredient for preventing or treating cancer” (DAEGU-GYEONGBUK MEDICAL INNOVATION FOUNDATION, priority 2016, dated 2020)
Where two headings read alike, the source gives them in different places.

Key:
Assay in all cases: Kinase selectivity, scanMAX Kinase assay panel (DiscoverX), % control at 1 uM
Format in all cases: binding
[1] = target: T1, scanMAX Kinase assay panel (Homo sapiens, UniProt P00519, Q252H); details: 1 uM, read-out: Percent Control (%)
T1 construct: purchased DiscoverX
Summary of the method: (§1)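 1 uM cpd (DMSO) per kinase; % ctrl = [cpd − pos ctrl]/[neg ctrl − pos ctrl] × 100; hit if <35.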

[2] = target: T2, scanMAX Kinase assay panel (Homo sapiens, UniProt P21127); details: CDC2L1; 1 uM; read-out: Percent Control (%)
T2 construct: purchased DiscoverX
T2 sequence (P21127 whole entry): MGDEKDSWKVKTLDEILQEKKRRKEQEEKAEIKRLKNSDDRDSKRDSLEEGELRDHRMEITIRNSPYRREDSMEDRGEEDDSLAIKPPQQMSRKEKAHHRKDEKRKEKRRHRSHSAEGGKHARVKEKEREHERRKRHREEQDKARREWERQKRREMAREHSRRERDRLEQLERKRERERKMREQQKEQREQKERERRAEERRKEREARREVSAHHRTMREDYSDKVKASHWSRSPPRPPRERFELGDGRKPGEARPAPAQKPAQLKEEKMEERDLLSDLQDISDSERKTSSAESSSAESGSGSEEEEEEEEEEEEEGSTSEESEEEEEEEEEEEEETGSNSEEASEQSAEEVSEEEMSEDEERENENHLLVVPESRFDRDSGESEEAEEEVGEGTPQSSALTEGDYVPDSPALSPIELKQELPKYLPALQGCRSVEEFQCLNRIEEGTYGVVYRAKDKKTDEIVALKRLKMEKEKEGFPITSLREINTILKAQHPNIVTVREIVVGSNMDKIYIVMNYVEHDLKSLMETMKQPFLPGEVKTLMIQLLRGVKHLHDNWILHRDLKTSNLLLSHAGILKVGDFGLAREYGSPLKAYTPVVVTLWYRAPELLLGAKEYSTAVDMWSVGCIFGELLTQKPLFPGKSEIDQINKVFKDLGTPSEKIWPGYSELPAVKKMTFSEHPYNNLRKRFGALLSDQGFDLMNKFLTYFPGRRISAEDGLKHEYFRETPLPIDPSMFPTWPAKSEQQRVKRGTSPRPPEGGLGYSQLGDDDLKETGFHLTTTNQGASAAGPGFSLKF
Summary of the method: as §1

[3] = target: T3, scanMAX Kinase assay panel (Homo sapiens, UniProt P36888, K663Q); details: FLT3 (K663Q); 1 uM; read-out: Percent Control (%)
T3 construct: purchased DiscoverX
T3 sequence (P36888 27-993 K663Q): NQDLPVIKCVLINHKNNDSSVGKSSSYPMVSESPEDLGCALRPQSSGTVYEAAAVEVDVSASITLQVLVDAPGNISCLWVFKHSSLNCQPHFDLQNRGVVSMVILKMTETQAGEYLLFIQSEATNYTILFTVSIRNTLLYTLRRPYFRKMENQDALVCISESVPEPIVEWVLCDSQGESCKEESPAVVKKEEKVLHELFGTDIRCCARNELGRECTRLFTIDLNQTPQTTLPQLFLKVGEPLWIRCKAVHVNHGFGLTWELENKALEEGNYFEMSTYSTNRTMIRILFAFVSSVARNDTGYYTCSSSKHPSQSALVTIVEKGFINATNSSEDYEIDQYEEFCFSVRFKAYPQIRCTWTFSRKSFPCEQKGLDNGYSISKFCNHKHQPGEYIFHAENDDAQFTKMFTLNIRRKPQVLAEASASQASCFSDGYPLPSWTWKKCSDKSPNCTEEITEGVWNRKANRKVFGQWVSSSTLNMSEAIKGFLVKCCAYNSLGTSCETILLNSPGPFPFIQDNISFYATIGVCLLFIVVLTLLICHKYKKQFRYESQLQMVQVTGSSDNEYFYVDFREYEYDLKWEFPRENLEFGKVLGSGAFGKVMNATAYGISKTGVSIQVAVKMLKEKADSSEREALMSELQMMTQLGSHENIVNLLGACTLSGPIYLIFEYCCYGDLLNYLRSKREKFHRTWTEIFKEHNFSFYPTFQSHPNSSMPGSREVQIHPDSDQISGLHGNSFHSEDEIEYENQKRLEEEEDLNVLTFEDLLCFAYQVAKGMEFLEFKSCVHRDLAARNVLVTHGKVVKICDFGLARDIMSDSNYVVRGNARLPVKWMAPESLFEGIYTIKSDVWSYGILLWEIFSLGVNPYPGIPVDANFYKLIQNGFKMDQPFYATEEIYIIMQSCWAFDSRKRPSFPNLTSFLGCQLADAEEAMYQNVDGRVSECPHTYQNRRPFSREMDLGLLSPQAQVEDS
Summary of the method: as §1

[4] = target: T4, scanMAX Kinase assay panel (Homo sapiens, UniProt P49841); details: GSK3B; 1 uM; read-out: Percent Control (%)
T4 construct: purchased DiscoverX
T4 sequence (P49841 whole entry): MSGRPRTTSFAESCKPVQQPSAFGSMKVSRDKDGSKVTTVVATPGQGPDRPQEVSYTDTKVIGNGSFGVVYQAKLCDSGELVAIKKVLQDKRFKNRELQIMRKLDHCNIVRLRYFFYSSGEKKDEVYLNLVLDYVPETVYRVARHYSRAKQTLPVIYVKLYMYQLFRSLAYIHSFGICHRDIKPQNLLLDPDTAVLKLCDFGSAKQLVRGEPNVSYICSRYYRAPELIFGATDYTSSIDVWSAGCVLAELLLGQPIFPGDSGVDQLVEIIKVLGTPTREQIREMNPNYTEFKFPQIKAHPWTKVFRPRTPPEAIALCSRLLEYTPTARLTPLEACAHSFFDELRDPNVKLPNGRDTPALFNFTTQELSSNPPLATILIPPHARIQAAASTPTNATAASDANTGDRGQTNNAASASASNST
Summary of the method: as §1

[5] = target: T5, scanMAX Kinase assay panel (Homo sapiens, UniProt Q00536); details: PCTK1; 1 uM; read-out: Percent Control (%)
T5 construct: purchased DiscoverX
T5 sequence (Q00536 whole entry): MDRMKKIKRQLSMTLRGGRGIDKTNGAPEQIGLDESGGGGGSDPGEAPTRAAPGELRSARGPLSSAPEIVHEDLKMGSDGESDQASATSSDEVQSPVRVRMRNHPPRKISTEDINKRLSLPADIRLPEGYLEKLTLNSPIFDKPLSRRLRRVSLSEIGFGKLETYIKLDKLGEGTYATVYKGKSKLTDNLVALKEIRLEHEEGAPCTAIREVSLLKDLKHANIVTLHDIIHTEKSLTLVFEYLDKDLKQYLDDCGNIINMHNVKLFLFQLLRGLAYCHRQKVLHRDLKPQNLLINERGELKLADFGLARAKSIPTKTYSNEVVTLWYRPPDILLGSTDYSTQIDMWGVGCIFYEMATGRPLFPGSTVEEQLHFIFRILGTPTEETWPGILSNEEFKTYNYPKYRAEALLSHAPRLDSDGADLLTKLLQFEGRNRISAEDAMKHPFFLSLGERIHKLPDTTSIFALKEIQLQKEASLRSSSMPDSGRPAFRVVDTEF
Summary of the method: as §1

[6] = target: T6, scanMAX Kinase assay panel (Homo sapiens, UniProt Q52WX2); details: SBK1; 1 uM; read-out: Percent Control (%)
T6 construct: purchased DiscoverX
T6 sequence (Q52WX2 whole entry): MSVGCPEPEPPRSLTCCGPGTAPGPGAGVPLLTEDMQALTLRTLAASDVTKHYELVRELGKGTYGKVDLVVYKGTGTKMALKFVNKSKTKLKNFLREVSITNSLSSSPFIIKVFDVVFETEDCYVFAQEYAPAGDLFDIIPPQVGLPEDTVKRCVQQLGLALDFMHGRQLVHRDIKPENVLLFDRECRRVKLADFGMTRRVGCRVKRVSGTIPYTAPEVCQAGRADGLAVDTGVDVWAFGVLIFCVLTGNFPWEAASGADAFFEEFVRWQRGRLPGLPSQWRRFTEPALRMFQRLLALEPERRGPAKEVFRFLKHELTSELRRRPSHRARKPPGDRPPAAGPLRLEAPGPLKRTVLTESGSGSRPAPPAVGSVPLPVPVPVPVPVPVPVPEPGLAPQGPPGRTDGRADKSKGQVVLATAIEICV
Summary of the method: as §1

[7] = target: T7, scanMAX Kinase assay panel (Homo sapiens, UniProt Q6PHR2); details: ULK3; 1 uM; read-out: Percent Control (%)
T7 construct: purchased DiscoverX
T7 sequence (Q6PHR2 1-472): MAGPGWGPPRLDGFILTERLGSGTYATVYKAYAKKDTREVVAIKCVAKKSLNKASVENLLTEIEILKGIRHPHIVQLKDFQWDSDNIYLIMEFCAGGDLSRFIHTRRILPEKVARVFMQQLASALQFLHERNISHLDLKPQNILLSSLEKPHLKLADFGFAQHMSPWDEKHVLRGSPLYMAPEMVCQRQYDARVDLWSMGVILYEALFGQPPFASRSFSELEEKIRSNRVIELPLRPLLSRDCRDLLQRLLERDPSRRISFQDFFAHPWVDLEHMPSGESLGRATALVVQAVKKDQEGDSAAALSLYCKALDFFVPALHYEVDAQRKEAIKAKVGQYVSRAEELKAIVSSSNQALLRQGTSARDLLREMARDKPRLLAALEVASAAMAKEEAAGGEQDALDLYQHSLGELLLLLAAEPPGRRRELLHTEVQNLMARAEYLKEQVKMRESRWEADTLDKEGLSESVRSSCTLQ
Summary of the method: as §1

[8] = target: T8, scanMAX Kinase assay panel (Homo sapiens, UniProt Q8N4C8); details: MINK; 1 uM; read-out: Percent Control (%)
T8 construct: purchased DiscoverX
T8 sequence (Q8N4C8 whole entry): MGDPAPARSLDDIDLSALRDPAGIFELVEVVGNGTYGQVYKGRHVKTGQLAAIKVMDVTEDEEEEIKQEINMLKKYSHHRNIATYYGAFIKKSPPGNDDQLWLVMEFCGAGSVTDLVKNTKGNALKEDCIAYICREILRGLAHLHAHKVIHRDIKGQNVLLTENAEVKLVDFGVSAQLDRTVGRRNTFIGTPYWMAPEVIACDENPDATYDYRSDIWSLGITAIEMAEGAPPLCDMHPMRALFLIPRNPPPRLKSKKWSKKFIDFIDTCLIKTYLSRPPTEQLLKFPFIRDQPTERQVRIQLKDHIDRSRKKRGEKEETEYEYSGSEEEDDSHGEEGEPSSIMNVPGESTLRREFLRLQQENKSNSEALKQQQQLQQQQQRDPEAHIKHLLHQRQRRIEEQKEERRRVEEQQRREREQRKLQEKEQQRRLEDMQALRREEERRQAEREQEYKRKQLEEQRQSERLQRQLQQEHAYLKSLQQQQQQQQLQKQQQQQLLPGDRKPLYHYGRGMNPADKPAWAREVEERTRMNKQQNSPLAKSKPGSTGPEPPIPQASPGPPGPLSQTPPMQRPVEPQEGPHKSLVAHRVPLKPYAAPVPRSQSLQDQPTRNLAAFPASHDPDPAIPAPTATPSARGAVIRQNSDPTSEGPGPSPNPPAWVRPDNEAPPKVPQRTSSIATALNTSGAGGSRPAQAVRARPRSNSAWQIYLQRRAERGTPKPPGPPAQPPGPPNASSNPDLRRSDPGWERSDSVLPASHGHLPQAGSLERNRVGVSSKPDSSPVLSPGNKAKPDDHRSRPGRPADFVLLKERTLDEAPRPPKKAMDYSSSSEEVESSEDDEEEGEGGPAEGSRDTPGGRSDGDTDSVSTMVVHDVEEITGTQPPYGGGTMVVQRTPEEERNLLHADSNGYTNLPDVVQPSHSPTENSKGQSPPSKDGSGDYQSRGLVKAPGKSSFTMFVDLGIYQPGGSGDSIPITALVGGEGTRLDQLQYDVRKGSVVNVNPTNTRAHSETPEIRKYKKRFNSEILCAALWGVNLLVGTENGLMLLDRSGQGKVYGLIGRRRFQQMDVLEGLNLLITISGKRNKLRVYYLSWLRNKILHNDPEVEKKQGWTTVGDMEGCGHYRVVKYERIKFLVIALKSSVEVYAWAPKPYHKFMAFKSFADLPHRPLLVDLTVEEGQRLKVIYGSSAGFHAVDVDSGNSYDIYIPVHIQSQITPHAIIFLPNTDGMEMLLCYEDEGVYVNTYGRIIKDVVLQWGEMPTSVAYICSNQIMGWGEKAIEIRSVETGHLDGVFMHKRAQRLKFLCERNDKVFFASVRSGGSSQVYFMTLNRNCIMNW
Summary of the method: as §1

[9] = target: T9, scanMAX Kinase assay panel (Homo sapiens, UniProt Q9P0L2); details: MARK1; 1 uM; read-out: Percent Control (%)
T9 construct: purchased DiscoverX
T9 sequence (Q9P0L2 whole entry): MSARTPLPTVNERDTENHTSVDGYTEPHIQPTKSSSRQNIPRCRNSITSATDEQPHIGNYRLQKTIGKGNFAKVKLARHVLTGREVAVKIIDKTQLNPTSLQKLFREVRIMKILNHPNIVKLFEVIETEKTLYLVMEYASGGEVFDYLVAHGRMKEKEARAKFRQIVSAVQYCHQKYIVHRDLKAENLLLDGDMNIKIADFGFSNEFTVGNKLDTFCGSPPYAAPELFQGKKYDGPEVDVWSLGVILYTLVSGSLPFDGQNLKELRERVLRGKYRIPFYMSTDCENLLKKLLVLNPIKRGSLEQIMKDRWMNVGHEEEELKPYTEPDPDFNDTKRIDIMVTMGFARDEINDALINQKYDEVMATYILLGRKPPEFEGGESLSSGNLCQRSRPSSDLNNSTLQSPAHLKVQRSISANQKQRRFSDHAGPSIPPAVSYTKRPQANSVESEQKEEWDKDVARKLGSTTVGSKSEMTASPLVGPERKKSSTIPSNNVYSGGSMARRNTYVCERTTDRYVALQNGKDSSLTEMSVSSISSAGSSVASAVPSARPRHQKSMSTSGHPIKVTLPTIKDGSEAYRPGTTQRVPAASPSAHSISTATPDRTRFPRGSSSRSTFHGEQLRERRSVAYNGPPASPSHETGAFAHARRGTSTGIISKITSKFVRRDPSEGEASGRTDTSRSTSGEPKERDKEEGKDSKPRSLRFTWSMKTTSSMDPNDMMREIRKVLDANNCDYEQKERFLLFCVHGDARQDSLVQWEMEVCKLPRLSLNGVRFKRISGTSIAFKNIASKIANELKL
Summary of the method: as §1

Compound | remaining binding at 1 µM ([1]; ABL1 (Q252H)-nonphosphorylated) | remaining binding at 1 µM ([1]; ABL1 (Q252H)-phosphorylated) | remaining binding at 1 µM [2] | remaining binding at 1 µM [3] | remaining binding at 1 µM [4] | remaining binding at 1 µM [5] | remaining binding at 1 µM [6] | remaining binding at 1 µM [7] | remaining binding at 1 µM [8] | remaining binding at 1 µM [9]
Cc1ccc(NC(=O)C2(C(=O)Nc3ccc(F)cc3)CC2)cc1C#Cc1cnc2c(Nc3cnn(C(C)C)c3)cccn12 [Example 78] | 6% | 91% | 100% | 74% | 96% | 100% | 100% | 100% | 87% | 100%
Cc1cn(-c2cc(NC(=O)c3ccc(C)c(C#Cc4cnc5c(Nc6cnn(C)c6)cccn45)c3)cc(C(F)(F)F)c2)cn1 [Example 12, 4-methyl-N-(3-(4-methyl-1H-imidazol-1-yl)-5-(trifluoromethyl)phenyl)-3-((8-((1-methyl-1H-pyrazol-4-yl)amino)imidazo[1,2-a]pyridin-3-yl)ethynyl)benzamide] | 3% | 14% | 80% | 1% | 85% | 100% | 94% | 91% | 44% | 95%
Cc1ccc(C(=O)Nc2ccc(CN3CCN(C)CC3)c(C(F)(F)F)c2)cc1C#Cc1cnc2c(Nc3cnn(C)c3)cccn12 [Example 1, 4-methyl-3-((8-((1-methyl-1H-pyrazol-4-yl)amino)imidazo[1,2-a]pyridin-3-yl)ethynyl)-N-(4-((4-methylpiperazin-1-yl)methyl)-3-(trifluoromethyl)phenyl)benzamide] | 7% | 0% | 20% | 2% | 79% | 93% | 89% | 1% | 2% | 78%
